The source of these data is patent US8053437B2, “Furo[3. 2-B] pyrrol derivatives” (Amura Therapeutics Limited, priority 2006, dated 2011).

Data set [1] concerns the target T1, Human recombinant cathepsin K (Homo sapiens, UniProt P43235).
T1 construct: purchased B. Turk, Josef, Stefan Institute, Ljubljana, Slovenia
T1 sequence (P43235 115-329): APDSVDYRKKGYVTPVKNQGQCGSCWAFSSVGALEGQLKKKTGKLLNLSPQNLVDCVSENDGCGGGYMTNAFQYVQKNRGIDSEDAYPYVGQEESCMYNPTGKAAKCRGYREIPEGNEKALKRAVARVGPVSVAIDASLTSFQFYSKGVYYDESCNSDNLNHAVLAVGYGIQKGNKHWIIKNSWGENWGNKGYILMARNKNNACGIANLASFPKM
Kind of data set: In vitro cathepsin Ki inhibition measurements. The data set is classed as biochemical. The following applies: read-out: In vitro Ki (nM) vs Cath K. On the procedure: Stock solutions of substrate or inhibitor were made up to 10 mM in 100% dimethylsulfoxide (DMSO) (Rathburns, Glasgow, U.K.) and diluted as appropriately required. In all cases the DMSO concentration in the assays was maintained at less than 1% (vol./vol.). The equilibrium inhibition constants (Ki^ss) for each compound were measured under steady-state conditions monitoring enzyme activity as a function of inhibitor concentration. The values were calculated on the assumption of pure competitive behaviour (Cornish-Bowden, A. Fundamentals of enzyme kinetics Portland Press; 1995, 93-128.). Human recombinant cathepsin K (0.25 nM final; B. Turk, Josef, Stefan Institute, Ljubljana, Slovenia), was routinely assayed in 100 mM sodium acetate; pH 5.5 containing 1 mM EDTA, 10 mM L-cysteine and 1.8 μM Z-Leu-Arg-AMC ([S]=KM).
The apparent inhibition constant (Ki) for each compound was determined on the basis that inhibition was reversible and occurred by a pure-competitive mechanism. The Ki values were calculated, from the dependence of enzyme activity as a function of inhibitor concentration, by direct regression analysis (Prism v 3.02) using Equation 2 (Cornish-Bowden, A., 1995).
In situations where the apparent dissociation constant (Ki^app) approached the enzyme concentrations, the Ki^app values were calculated using a quadratic solution in the form described by Equation 3 (Morrison, J. F. Trends Biochem. Sci., 7, 102-105, 1982; Morrison, J. F. Biochim. Biophys. Acta, 185, 269-286, 1969; Stone, S. R. and Hofsteenge, J. Biochemistry, 25, 4622-4628, 1986).
In Equation 3 ‘vi’ is the observed residual activity, ‘F’ is the difference between the maximum activity (i.e. in the absence of inhibitor) and minimum enzyme activity, ‘Eo’ is the total enzyme concentration, ‘Ki^app’ is the apparent dissociation constant and ‘Io’ is the inhibitor concentration. Curves were fitted by non-linear regression analysis (Prism) using a fixed value for the enzyme concentration. Equation 4 was used to account for the substrate kinetics, where ‘Ki’ is the inhibition constant, ‘[So]’ is the initial substrate concentration and ‘KM^app’ is the apparent macroscopic binding (Michaelis) constant for the substrate (Morrison, 1982).

Data set [2] can be described thus: Plasma incubations (human plasma stability). In kind it is in vitro ADME. The settings on record: 37° C. The procedure:
Human and rat plasma were purchased from Innovative Research Inc. (Southfield. MI, USA). Compounds were taken from 5 mM DMSO stock solutions and added to plasma, which had previously been incubated at 37° C., to give a final concentration of 25 μM and re-incubated. Aliquots were removed at 2 and 60 minutes and quenched with an equal volume of cold acetonitrile. After mixing vigorously, the precipitated protein matter was removed by filtration (Multiscreen Solvinert filter plates, Millipore, Bedford, Mass., USA) and the filtrate analysed by reverse phase HPLC with mass spectrometric detection, using single ion monitoring of the [M+H]^+ species. Metabolic turnover was determined by comparison of peak areas from the ion chromatograms of the parent compound at 2 and 60 minutes and expressed as percent remaining at 1 hour: […]

Data set [3] is described as follows: Liver microsomal incubations (HLM stability). In kind it is in vitro ADME. The settings on record: human liver microsomes. The procedure: Human and rat liver microsomes were purchased from BD Gentest (Woburn, Mass., USA) and β-nicotinamide adenine dinucleotide 2′-phosphate reduced tetrasodium salt (NADPH) was purchased from Sigma-Aldrich (Poole, Dorset, UK). All liver microsome incubations were carried out in 50 mM potassium phosphate buffer at pH 7.4, with a final microsomal protein concentration of 0.5 mg/mL. Compounds were taken from 5 mM DMSO stock solutions and diluted in incubation buffer to give a final concentration of […] with a final DMSO concentration of 0.5% v/v. In brief, compounds were added to the incubation buffer along with the liver microsomes and incubated at 37° C. for 10 minutes. The reaction was then initiated by the addition of NADPH, previously dissolved in incubation buffer, to give a final concentration of 1 mM and re-incubated at 37° C. Aliquots were removed at 2 and 60 minutes and quenched with an equal volume of cold acetonitrile. After mixing vigorously, the precipitated protein matter was removed by filtration (Multiscreen Solvinert filter plates, Millipore, Bedford, Mass., USA) and the filtrate analysed by reverse phase HPLC with mass spectrometric detection, using single ion monitoring of the [M+H]^+ species. Metabolic turnover was determined by comparison of peak areas from the ion chromatograms of the parent compound at 2 and 60 minutes and expressed as percent remaining at 1 hour.
Background: Liver microsomes are a subcellular fraction often used to study metabolism.

For another data set, the system named is rat osteoclasts. The data set is described as follows: Rat osteoclast resorption assay. The settings on record: read-out: Cell-based % Inh. @ 1 μM Rat. The procedure: Bone resorption was studied using a model where mature osteoclasts derived from rat bone were cultured on bovine bone slices for 3 days and allowed to resorb bone in the presence of inhibitor, positive control (E-64) or vehicle. More specifically, tibia, femori and humeri were removed from 1 day old rat pups. The endosteal surfaces of the bones were scraped with a scapelto release osteoclasts into the culture medium and the osteoclasts were allowed to attach to bovine bone slices. After the culture period, bone collagen degradation products were quantified from the culture medium as an index of bone resorption. The assay was performed by Pharmatest Services Ltd, Itilinen Pitkakatu 4C, Turku, Finland.

A short description of data set [4]: LogD determinations (shake-flask, octanol/PBS). In kind it is physicochemical. The following applies: 1-octanol/phosphate buffered saline; pH 7.4; ion-count method. On the procedure: LogD(PBS) determinations were performed in 96 well microtitre plates using a miniaturised “shake-flask” method. In brief, compounds were taken from 10 mM DMSO stock solutions and added to wells containing equal volumes of phosphate buffered saline (10 mM; pH 7.4) (PBS) and 1-octanol (Sigma-Aldrich, Poole, Dorset, UK) to give a final concentration of 50 μM. The plates were then capped and mixed vigorously for 1 hour on a microtitre plate shaker, after which they were left to stand, allowing the PBS and octanol phases to separate. The PBS layer was analysed by reverse phase HPLC with mass spectrometric detection, using single ion monitoring of the [M+H]^+ species. LogD(PBS) was determined by comparison of the peak area from the ion chromatogram of the compound in the PBS phase with that of a 50 μM standard of the same compound dissolved in acetonitrile/water (50:50) and calculated using the following formula: […]
Where AUCstd and AUCpbs are the peak areas from the standard and test ion chromatograms respectively.

Data set [5] has as its system human osteoclasts. The data set is described as follows: Human osteoclast resorption assay. The settings on record: human osteoclast activity, read-out: Cell-based % Inh. @ 1 μM Human. On the procedure:
Bone resorption was studied using a model where human osteoclast precursor cells were cultured on bovine bone slices for 9 days and allowed to differentiate into bone-resorbing osteoclasts. The formed mature osteoclasts were then allowed to resorb bone. The assay was performed by Pharmatest Services Ltd, ItAinen Pitkakatu 4C, Turku, Finland. After the culture period, bone collagen degradation products were quantified from the culture medium as an index of bone resorption. Inhibitor compounds were added into the cell cultures after the differentiation period and their effects on the resorbing activity of mature osteoclasts were determined. The studies included a baseline group without added compounds and a positive control group where a potent cathepsin K inhibitor E-64 was added.
Human peripheral blood monocytes were suspended to culture medium and allowed to attach to bovine bone slices. The bone slices were transferred into 96-well tissue culture plates containing culture medium with appropriate amounts of important growth factors favouring osteoclast differentiation, including M-CSF, RANK-ligand and TGF-β. The cells were incubated in a CO2 incubator in humidified atmosphere of 95% air and 5% carbon dioxide at 37° C. At day 7 when osteoclast differentiation was complete, the culture medium was replaced with culture medium containing conditions favouring osteoclast activity. The cell culture was continued for an additional 2 days, during which the formed mature osteoclasts were allowed to resorb bone in the presence of vehicle, control inhibitor (E64) or test compounds. At the end of the culture, bone collagen degradation products released into the culture medium were determined using a commercially available ELISA method (CrossLaps® for culture, Nordic Bioscience, Herlev, Denmark) as an index of bone resorption (see Bagger, Y. Z., et al, J. Bone. Miner. Res. 14 (suppl. 1), S370).

Data set [6] relates to human osteoclasts. The settings on record: human osteoclast, literature value; cited from earlier work.

By Ki is commonly meant the equilibrium dissociation constant of an inhibitor or competing ligand from its target. What is called logD is the decadic logarithm of the distribution of all forms, ionised or not, between an organic phase and buffer at a given pH.

With `CCC(C)[C@H](NC(=O)c1ccc(N2CCN(C)CC2)cc1)C(=O)N1CC[C@H]2OCC(=O)[C@H]21` (stereo in doubt) [Example 9, N-((2S,3S)-3-methyl-1-oxo-1-((3aS,6aR)-3-oxodihydro-2H-furo [3,2-b]pyrrol-4(5H,6H,6aH)-yl)pentan-2-yl)-4-(4-methylpiperazin-1-yl)benzamide], the inhibition constant Ki in data set [1] turned out to be 5 nM. In addition, in data set [2], the “Human Plasma Stability % rem. @ 1 hr” value is recorded as 91%. The “HLM % rem. @ 1 hr” value in data set [3] was found to be 94%. Further, the inhibition at 1 µM with rat osteoclasts was 10%; in the data set on human osteoclasts [5], 77%. This compound also had a logD in data set [4] of 1.15.
For `CC(C)C[C@H](NC(=O)c1ccc(N2CCN(C)CC2)cc1)C(=O)N1CC[C@H]2OCC(=O)[C@H]21` [Example 1, reference compound], the “Human Plasma Stability % rem. @ 1 hr” value in data set [2] stood at 95%. Also, in data set [3], the “HLM % rem. @ 1 hr” value was determined as 95%. In addition, the inhibition at 1 µM in the data set with rat osteoclasts came out at 43%; with human osteoclasts [5], 55%.
With `CCN1CCN(c2ccc(C(=O)N[C@@H](CC(C)C)C(=O)N3CC[C@H]4OCC(=O)[C@H]43)cc2)CC1` [Example 2, 4-(4-ethylpiperazin-1-yl)-N—((S)-4-methyl-1-oxo-1-((3aS,6aR)-3-oxodihydro-2H-furo[3,2-b]pyrrol-4(5H,6H,6aH)-yl)pentan-2-yl)benzamide, reference compound], in data set [2], the “Human Plasma Stability % rem. @ 1 hr” value came to 93%. Besides, the “HLM % rem. @ 1 hr” value in data set [3] was 88%. Also, the results for the inhibition at 1 µM in the data set on rat osteoclasts and in the data set on human osteoclasts [5] were 40% and 58%, respectively.
Turning to `CN1CCN(c2ccc(C(=O)N[C@@H](CC(C)(C)C)C(=O)N3CC[C@H]4OCC(=O)[C@H]43)cc2)CC1` [Example 3, N—((S)-4,4-dimethyl-1-oxo-1-((3aS,6aR)-3-oxo-dihydro-2H-furo[3,2-b]pyrrol-4(5H,6H,6aH)-yl)pentan-2-yl)-4-(4-methylpiperazin-1-yl)benzamide], the Ki in data set [1] came to 4 nM. The “Human Plasma Stability % rem. @ 1 hr” value in data set [2] was 95%. Besides, the “HLM % rem. @ 1 hr” value in data set [3] amounted to 96%. The inhibition at 1 µM came to 75% in the data set with rat osteoclasts and 79% with human osteoclasts [5]. Moreover, in data set [4], the logD was found to be 0.87.
As to `CCCN1CCN(c2ccc(C(=O)N[C@@H](CC(C)(C)C)C(=O)N3CC[C@H]4OCC(=O)[C@H]43)cc2)CC1` [Example 4, N—((S)-4,4-dimethyl-1-oxo-1-((3aS,6aR)-3-oxo-dihydro-2H-furo[3,2-b]pyrrol-4(5H,6H,6aH)-yl)pentan-2-yl)-4-(4-propylpiperazin-1-yl)benzamide], the inhibition constant Ki in data set [1] is 12 nM. The “Human Plasma Stability % rem. @ 1 hr” value in data set [2] worked out at 92%. Moreover, in data set [3], the “HLM % rem. @ 1 hr” value came to 82%. Further, the inhibition at 1 µM in the data set on rat osteoclasts was 72%; in the data set with human osteoclasts [5], 75%. In data set [4], this compound displayed a pH-dependent lipophilicity (logD) of 1.87.
With `COCCN1CCN(c2ccc(C(=O)N[C@@H](CC(C)(C)C)C(=O)N3CC[C@H]4OCC(=O)[C@H]43)cc2)CC1` [Example 5, N—((S)-4,4-dimethyl-1-oxo-1-((3aS,6aR)-3-oxo-dihydro-2H-furo[3,2-b]pyrrol-4(5H,6H,6aH)-yl)pentan-2-yl)-4-(4-(2-methoxyethyl)piperazin-1-yl)benzamide], the inhibition constant (Ki) in data set [1] amounted to 14 nM. Further, in data set [2], the “Human Plasma Stability % rem. @ 1 hr” value stood at 90%. In data set [3], the “HLM % rem. @ 1 hr” value was 92%. Moreover, the inhibition at 1 µM in the data set with rat osteoclasts worked out at 79%; with human osteoclasts [5] it was 72%. In data set [4], this compound came in with a logD of 1.51.
Regarding `CN1CCN(c2ccc(C(=O)N[C@H](C(=O)N3CC[C@H]4OCC(=O)[C@H]43)C(C)(C)C)cc2)CC1` [Example 8, N—((S)-3,3-dimethyl-1-oxo-1-((3aS,6aR)-3-oxo-dihydro-2H-furo[3,2-b]pyrrol-4(5H,6H,6aH)-yl)butan-2-yl)-4-(4-methylpiperazin-1-yl)benzamide], in data set [1], the Ki was determined as 6 nM. The “Human Plasma Stability % rem. @ 1 hr” value in data set [2] turned out to be 93%. Besides, the “HLM % rem. @ 1 hr” value in data set [3] amounted to 89%. In addition, the inhibition at 1 µM in the data set on rat osteoclasts was 20%; with human osteoclasts [5], 82%. This compound had a pH-dependent lipophilicity (logD) in data set [4] of 0.81.
Turning to `CC(C)C[C@H](NC(=O)c1ccc(C(C)(C)C)cc1)C(=O)N1CC[C@H]2OCC(=O)[C@H]21` [Prior art compound 23, reference compound], the “Cell-based % Inh. @ 1 μM Human (Lit.)” value in the data set with human osteoclasts [6] is “Lit. 60%”. The “Human Plasma Stability % rem. @ 1 hr” value in data set [2] is listed as 75%. The “HLM % rem. @ 1 hr” value in data set [3] is given as 70%.
